How the values were obtained:
mPTP [1] = test: mPTP activity (Ca2+ retention) assay in isolated rat liver mitochondria; format: biochemical; settings: for mPTP Rat liver pIC50*: isolated rat liver mitochondria, Fluo5N fluorescence at 10 min after CaCl2 (75 μM) bolus, DMSO 0%, 5 μM cyclosporin A 100% inhibition
Source text: Pharmacological inhibition or modulation of the mPTP can be measured in well characterised ‘Ca^2+ retention’ assays performed in isolated mitochondria. In vitro, isolated mitochondria rapidly sequester exogenous Ca^2+ until the intramitochondrial Ca^2+ concentration reaches the threshold for mPTP activation. Once the pore is activated, mitochondrial integrity is compromised and the stored Ca^2+ is released. The distribution of Ca^2+ between extra- and intra-mitochondrial compartments can be measured in real time with the use of membrane-impermeant Ca^2+ sensitive fluorescent dyes. Depending on the configuration of the assay, inhibition or modulation of the mPTP either delays the opening of the pore or increases the concentration of Ca^2+ required to induce mPTP opening.
MPTP activity was measured in mitochondria freshly isolated from female Sprague Dawley (250 to 300 gram) rat livers using the following method. Cervical dislocation was performed on the rat. The liver was then perfused in-situ with ~40 ml cold Dulbecco's Phosphate Buffered Saline (DPBS) prior to dissection and transferred into 30 ml Isolation Buffer (250 mM Sucrose, 10 mM KCl, 1 mM EGTA, 1 mM EDTA, 25 mM HEPES, adjusted to pH 7.5 with 1M NaOH). Each lobe of the liver was then removed from the buffer, minced using tweezers and a scalpel into ~5 mm pieces then transferred into a 50 ml Potterton dounce homogenization tube on ice containing 30 ml ice-cold centrifugation buffer (300 mM Trehalose, 25 mM HEPES, 1 mM EGTA, 1 mM EDTA, 10 mM KCl, adjusted to pH 7.5 with 1M NaOH and supplemented with 0.1% bovine serum albumin (BSA) and complete protease inhibitor cocktail (one tablet of inhibitor per 50 mls of buffer). Homogenisation was carried out using a Teflon® pestle at 1800 rpm. The slurry was centrifuged at 800 g for 10 min at 4° C., then the supernatant centrifuged at 10,000 g for 10 min. The pellet was washed once with FLIPR assay buffer (75 mM Mannitol, 25 mM Sucrose, 5 mM Potassium Phosphate Monobasic, 20 mM Tris base, 100 mM KCl, 0.1% BSA adjusted to pH 7.4 with 5M HCl) centrifuged again, then resuspended in FLIPR assay buffer to a concentration of 8.8 mg/ml protein.
Tested compounds (10 mM stock in DMSO) were serially diluted in DMSO in half log steps to generate 10 test concentrations (final concentrations in assay 30 μM to 1 nM). An intermediate dilution of 5 μl DMSO samples into 247 μl FLIPR assay buffer was carried out prior to transfer of 5 μl into duplicate wells of a 384 well polypropylene assay plate. Control wells were 0.5% (v/v) DMSO and 5 μM cyclosporin A.
A stock mitochondria/Fluo5N assay solution was prepared in 5.6 ml FLIPR assay buffer (at RT) supplemented with succinate disodium salt (10 mM), rotenone (1 μM), Fluo5N pentapotassium salt (2 μM) and 1 ml mitochondria suspension, then transferred (15 μl) into the assay plate containing test compounds and incubated for 10 min at RT. Assay plates were processed for fluorescence detection on either a FLIPR Tetra (Molecular Devices) or CLARIOstar (BMG) plate reader. For kinetic fluorescence detection on the FLIPR, dye fluorescence was measured every 3 sec for a total of 10 min. After 12 sec, a 2.5 μl bolus of CaCl2 (75 μM) was added from a source plate containing 675 μM CaCl2 in FLIPR assay buffer. Alternatively, the 2.5 μl addition of CaCl2 was performed using a Viaflow 384, plates were incubated at RT for 10 min, and dye fluorescence measured after 10 min on the CLARIOstar plate reader. pIC50 values for tested compounds were calculated using the fluorescence value collected at the 10 min timepoint on either plate reader, with % inhibition calculated using the DMSO control and cyclosporin A values as 0 and 100% respectively.

mPTP [2] = test: mPTP activity (Ca2+ retention) assay in isolated rat brain mitochondria; format: biochemical; settings: for mPTP Rat brain pIC50: isolated rat brain mitochondria, Fluo5N fluorescence at 10 min after Ca2+ (75 μM) bolus
Procedure: MPTP activity was measured in brain mitochondria freshly isolated from female Sprague Dawley (250 to 300 gram) rats. Anaesthetised rats were perfused in-situ with ~40 ml cold Dulbecco's Phosphate Buffered Saline (DPBS), then brains dissected and transferred into 30 ml Isolation Buffer (225 mM mannitol, 75 mM sucrose, 1 mM EGTA, adjusted to pH 7.4 with 1M NaOH). The brain was minced using tweezers and a scalpel into ~5 mm pieces then transferred into a 50 ml Potterton Dounce homogenization tube on ice containing 10 ml ice-cold isolation buffer (as above with addition of Complete Protease inhibitor; 1 tablet per 50 ml buffer). Homogenisation was carried out using a Teflon® pestle at 1800 rpm. The slurry was centrifuged at 2000 g for 10 min at 4° C., then the supernatant centrifuged at 12,000 g for 9 min. The pellet was resuspended with a dounce homogeniser in isolation buffer as above but with the addition of 0.02% digitonin, centrifuged at 12,000 g for 11 min and finally resuspended in 5 ml modified isolation buffer (as above but with EGTA reduced to 0.1 mM).
Test compounds were prepared in 384 well polypropylene assay plates as described above for the liver mitochondria assay. A stock mitochondria/Fluo5N assay solution was prepared in 5.6 ml assay buffer (120 mM mannitol, 40 mM MOPS, 5 mM KH2PO4, 60 mM KCl, 10 mM pyruvate, 2 mM malate, 2 mM MgCl2, 20 μM ADP, 1.26 μM oligomycin A, adjusted to pH 7.4) supplemented with Fluo5N pentapotassium salt (2 μM) and 1 ml mitochondria suspension, then transferred (15 μl) into the assay plate containing test compounds and incubated for 10 min at RT. Assay plates were then transferred to a FLIPR Tetra plate reader (Molecular Devices). Dye fluorescence was then measured every 3 sec for a total of 10 min.

mPTP Rat liver pIC50* (mPTP [1]) | mPTP Rat brain pIC50 (mPTP [2]) | Structure (SMILES) | activity in the rat brain mitochondria assay (ranking in words) (mPTP [2]; among tested Example compounds) | activity in the rat liver mitochondria assay (ranking in words) (mPTP [1]; among tested Example compounds)
<4.52 | 5.57 | O=C(c1nccc(=O)[nH]1)N1CC(c2ccccc2)C2(CC(F)C2)C1 (single isomer, unassigned) [Example 25b, 2-(2-fluoro-8-phenyl-6-azaspiro[3.4]octane-6-carbonyl)pyrimidin-4(3H)-one] |  | 
6 | 6.63 | O=C(c1cncc(=O)[nH]1)N1CC(c2ccccc2)C2(CCCC2)C1 (single isomer, unassigned) [Example 17a, 6-[4-Phenyl-2-azaspiro[4.4]nonane-2-carbonyl]-1H-pyrazin-2-one] |  | 
5.33 | 6.55 | Cn1nc(C(=O)N2C[C@@H](c3ccccc3)C3(CCC3)C2)[nH]c1=O (single isomer, unassigned) [Example 5b] |  | 
4.88 | 4.96 | O=C(c1cccc(=O)[nH]1)N1CC(c2ccccc2)C2(CCC2)C1 (single isomer, unassigned) [Example 26a, 6-(8-phenyl-6-azaspiro[3.4]octane-6-carbonyl)pyridin-2(1H)-one] |  | 
<4.52 | <4.52 | O=C(c1cc(O)no1)N1CC(c2ccc(F)cc2F)C2(CCC2)C1 (single isomer, unassigned) [Example 42b, (8-(2,4-difluorophenyl)-6-azaspiro[3.4]octan-6-yl)(3-hydroxyisoxazol-5-yl)methanone] |  | 
5.57 | 5.79 | O=C(c1cncc(=O)[nH]1)N1CC(c2ccc(F)cc2)C2(CCC2)C1 (single isomer, unassigned) [Example 35b, 6-(8-(4-fluorophenyl)-6-azaspiro[3.4]octane-6-carbonyl)pyrazin-2(1H)-one] |  | 
6.82 | 7.5 | O=C(c1cncc(=O)[nH]1)N1CC(c2ccc(F)cc2)C2(CCC2)C1 (single isomer, unassigned) [Example 35a, 6-(8-(4-fluorophenyl)-6-azaspiro[3.4]octane-6-carbonyl)pyrazin-2(1H)-one] |  | highest activity
<4.52 | 7.03 | O=C(c1cc(O)no1)N1CC(c2ccc(F)c(F)c2)C2(CCC2)C1 (single isomer, unassigned) [Example 46b, (8-(3,4-difluorophenyl)-6-azaspiro[3.4]octan-6-yl)(3-hydroxyisoxazol-5-yl)methanone] |  | 
5.53 | 6.47 | O=C(c1noc(=O)[nH]1)N1CC(c2ccc(F)cc2F)C2(CCC2)C1 (single isomer, unassigned) [Example 48a, 3-(8-(2,4-difluorophenyl)-6-azaspiro[3.4]octane-6-carbonyl)-1,2,4-oxadiazol-5(4H)-one] |  | 
5.23 | 5.21 | O=C(c1cnn[nH]1)N1CC(c2ccccc2)C2(CCC2)C1 (single isomer, unassigned) [Example 14a, 8-Phenyl-6-(3H-1,2,3-triazole-4-carbonyl)-6-azaspiro[3.4]octane] |  | 
4.75 | 6.25 | Cn1nc(C(=O)N2CC(c3ccccc3F)C3(CCC3)C2)[nH]c1=O (stereo not drawn) [Example 11, 5-(8-(2-fluorophenyl)-6-azaspiro[3.4]octane-6-carbonyl)-2-methyl-2,4-dihydro-3H-1,2,4-triazol-3-one] |  | 

The next lines start with the compound.

Structure (SMILES) | mPTP Rat liver pIC50* (mPTP [1]) | mPTP Rat brain pIC50 (mPTP [2]) | activity in the rat brain mitochondria assay (ranking in words) (mPTP [2]; among tested Example compounds) | activity in the rat liver mitochondria assay (ranking in words) (mPTP [1]; among tested Example compounds)
O=C(c1cncc(O)c1)N1CC(c2ccccc2)C2(CCC2)C1 (single isomer, unassigned) [Example 1b, (5-hydroxypyridin-3-yl)(8-phenyl-6-azaspiro[3.4]octan-6-yl)methanone] | 6.01 | 6.94 |  | 
O=C(c1cncc(=O)[nH]1)N1CC(c2ccc(Cl)cc2)C2(CCC2)C1 (single isomer, unassigned) [Example 16b, 6-[8-(4-Chlorophenyl)-6-azaspiro[3.4]octane-6-carbonyl]-1H-pyrazin-2-one] | <4.52 | <4.52 |  | 
O=C(c1cc(O)no1)N1CC(c2ccc(F)cc2)C2(CCC2)C1 (single isomer, unassigned) [Example 36a, (8-(4-fluorophenyl)-6-azaspiro[3.4]octan-6-yl)(3-hydroxyisoxazol-5-yl)methanone] | 6.65 | 7.53 | highest activity | 
O=C(c1cncc(=O)[nH]1)N1CC(c2ccccc2Cl)C2(CCC2)C1 (single isomer, unassigned) [Example 30a, 6-(8-(2-chlorophenyl)-6-azaspiro[3.4]octane-6-carbonyl)pyrazin-2(1H)-one] | 5.28 | 6.92 |  | 
O=C(c1cncc(=O)[nH]1)N1CC(c2ccccc2Cl)C2(CCC2)C1 (single isomer, unassigned) [Example 30b, 6-(8-(2-chlorophenyl)-6-azaspiro[3.4]octane-6-carbonyl)pyrazin-2(1H)-one] | <4.52 | <4.52 |  | 
CC1(C)CN(C(=O)c2cncc(O)c2)CC1c1ccccc1 (stereo not drawn) [Example 4, (3,3-dimethyl-4-phenylpyrrolidin-1-yl)(5-hydroxypyridin-3-yl)methanone] | 5.47 | 6.22 |  | 
N#Cc1ccc(C2CN(C(=O)c3cncc(=O)[nH]3)CC23CCC3)cc1 (single isomer, unassigned) [Example 20b, 4-[6-(6-oxo-1H-pyrazine-2-carbonyl)-6-azaspiro[3.4]octan-8-yl]benzonitrile] | <4.52 | <4.52 |  | 
CCC1CN(C(=O)c2cncc(=O)[nH]2)CC1c1ccccc1 (single isomer, unassigned) [Example 15d, 6-(3-ethyl-4-phenylpyrrolidine-1-carbonyl)pyrazin-2(1H)-one] | <4.52 | <4.52 |  | 
O=C(c1cncc(=O)[nH]1)N1CC(c2ccc(Cl)cc2)C2(CCC2)C1 (single isomer, unassigned) [Example 16a, 6-[8-(4-Chlorophenyl)-6-azaspiro[3.4]octane-6-carbonyl]-1H-pyrazin-2-one] | 5.58 | 6.39 |  | 

Source: patent US20260226031A1, “NOVEL COMPOUNDS” (NRG THERAPEUTICS LTD., priority 2023, published 2026)
